Test results reported in patent US4925846A, “2-thiazolyl-imidazo[1,2,-a]pyrimidines” (Roussel Uclaf, priority 1986, dated 1990).
pIC50: −log10 of the molar value.

Legend:
[1] = target: benzodiazepine receptor; test: Benzodiazepine receptor binding (FRB), [3H]-flunitrazepam displacement; details: 0.6 nM [3H] flunitrazepam, rat forebrain membrane preparations; read-out: FRB (IC50, inhibition of specific binding of [3H]-flunitrazepam)
Method: The compounds of formula I are agents which interact with benzodiazepine receptors in the brain, and are useful as minor tranquillizers and for the treatment of obesity or cognitive impairment. Screening for benzodiazepine receptor binding (FRB) was carried out by the method described in published British Patent No. 2,128,989. The values given in Table II are expressed in terms of IC50 (nM).
The affinity of the compounds for the benzodiazepine receptor was assessed using the radioligand [^3 H]-flunitrazepam by modification of the original radioceptor binding method of SQUIRES et al [Nature, (1977), Vol. 266, p. 732].

[2] = system: CD1 mice; test: Potentiation of seizures induced by subcutaneous injection of leptazol to CD1 mice; type: in vivo; details: Mus musculus, ip, 0.5 h, i.p., 30 mins pretest, read-out: ED50, potentiation of leptazol-induced tonic seizures
Method: (§1) Benzodiazepine inverse agonists properties are indicated by the following tests.
(b) Potentiation of seizures induced by subcutaneous injection of leptazol to CD1 mice.
A dose of leptazol is selected to give 10 to 20% tonic seizures in untreated CD1 mice. Active compounds increase the percentage of tonic seizures and the ED50 is calculated by the method of Lichfield and Wilcoxon (J. Pharmacol Exp. Ther. (1949) 96, 99).

[3] = system: DBA2 mice; test: Potentiation of threshold seizures induced by audiogenic stimulation in DBA2 mice; type: in vivo; details: Mus musculus, ip, 0.5 h, i.p., 30 mins pretest, read-out: ED50, potentiation of audiogenic threshold seizures to full tonic seizures
Method: as §1
(a) Potentiation of threshold seizures induced by audiogenic stimulation in DBA2 mice [Jensen et al--Life Sciences 33, 393-9 (1983)], DBA2 mice are subjected to audio stimulation. The threshold seizure characteristics (myoclonus, running) are potentiated by active compounds to full tonic seizures and ED50 is calculated.

[4] = system: Wistar rats; test: Induction of suprahyoid muscle twitching in urethane anaesthetised Wistar rats; type: in vivo; details: Rattus norvegicus, ip, urethane anaesthetised Wistar rats pretreated with nialamide; read-out: MED, increase of amplitude and/or rate of suprahyoid muscle twitch
Text: as §1
(c) […] of suprahyoid muscle twitching in urethane anaesthetised Wistar rats [James & Gardner--Europ. J. Pharmacol. 113, 223-8 (1985)]. Wistar rats pretreated with nialamide are anaesthetised with urethane and the suprahyoid muscles exposed. These muscles spontaneously twitch and active compounds increase the amplitude and/or rate of twitch.

| SMILES | pIC50 [1] | further results |
| --- | --- | --- |
| COc1nc2nc(-c3nc(C)cs3)cn2c2c1CCCC2 [Example 7, 5-Methoxy-2-(4-methylthiazol-2-yl)-6,7,8,9-tetrahydroimidazo[1,2-a]quinazoline] | 7.66 |  |
| CCc1c(OC)nc2nc(-c3nc(C(F)(F)F)cs3)cn2c1C [Example 6, 6-Ethyl-7-methoxy-5-methyl-2-(4-trifluoromethylthiazol-2-yl)-imidazol[1,2-a]pyrimidine] | 5.70 |  |
| C=CCc1c(OC)nc2nc(-c3nc(C)cs3)cn2c1C [Example 8, 6-Allyl-7-methoxy-5-methyl-2-(4-methylthiazol-2-yl)imidazo[1,2-a]pyrimidine] | 7.00 |  |
| CCc1c(OC)nc2nc(-c3nc(C)c(C)s3)cn2c1C [Example 3, 2-(4,5-Dimethylthiazol-2-yl)-6-ethyl-7-methoxy-5-methylimidazo[1,2-a]pyrimidine] | 5.60 |  |
| CCCc1c(OC)nc2nc(-c3nc(C)cs3)cn2c1C [Example 9, 7-Methoxy-5-methyl-2-(4-methylthiazol-2-yl)-6-propylimidazo[1,2-a]pyrimidine] | 7.00 |  |
| CCc1c(SC)nc2nc(-c3nc(C)cs3)cn2c1C [Example 5, 6-Ethyl-5-methyl-2-(4-methylthiazol-2-yl)-7-methylthioimidazo[1,2-a]pyrimidine] | 7.10 |  |
| CCc1csc(-c2cn3c(C)c(CC)c(OC)nc3n2)n1 [Example 2, 6-Ethyl-2-(4-ethylthiazol-2-yl)-7-methoxy-5-methylimidazo[1,2-a]pyrimidine] | 6.66 |  |
| CCc1c(OC)nc2nc(-c3nc(C)cs3)cn2c1C [Example 1, 6-Ethyl-7-methoxy-5-methyl-2-(4-methylthiazol-2-yl)-imidazo[1,2-a]pyrimidine] | 6.95 | ED50 [2]: 50 mg/kg; ED50 [3]: 3 mg/kg; minimal effective dose [4]: 10 mg/kg |
| CCOC(=O)c1csc(-c2cn3c(C)c(CC)c(OC)nc3n2)n1 [Example 4, Ethyl 2-(6-ethyl-7-methoxy-5-methylimidazo[1,2-a]pyrimidin-2-yl)-thiazole-4-carboxylate] | 5.55 |  |
| CCc1c(OC)nc2nc(-c3nccs3)cn2c1C [Example 10, 6-Ethyl-7-methoxy-5-methyl-2-(thiazol-2-yl)imidazo[1,2-a]pyrimidine] | 6.70 |  |
